The values that follow come from PubChem BioAssay AID192 (DTP/NCI, 2004).

SMILES strings stand for the structures. Several values for one entry are separate records, joined by “and”; a condition that tells them apart may be missing. Equal entries are not always repeated. Inconclusive results and toxic doses are left out. Square brackets hold non-standard residues; d marks the D form. Peptide text beside a SMILES is read from it. * marks the point of attachment. ξ: configuration not given here. ξF = NC(Cc1ccccc1)C(=O)O; Cbz = O=C(OCc1ccccc1)*; Sar = CNCC(=O)O

The assay concerns BDF1 mice, B16 melanoma ip, median survival T/C. The assay can be described thus: NCI In Vivo Anticancer Drug Screen. Data for tumor model B16 Melanoma (intraperitoneal) in B6D2F1 (BDF1) mice. Particulars: endpoint: median survival time, higher = longer survival. In a few lines: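 In this screen, activity was judged from survival or tumor size in treated versus vehicle-treated tumor-bearing mice, reported as T/C.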

Setting [1] is: dose: 50.0 mg/kg/injection, schedule: Q01DX009 (ip), vehicle: Klucel (hydroxypropylcellulose) (HPC).
The mark [2] stands for this setting: dose: 100.0 mg/kg/injection, schedule: Q01DX009 (ip), vehicle: Klucel (hydroxypropylcellulose) (HPC).
Where [3] appears, read: dose: 200.0 mg/kg/injection, schedule: Q01DX009 (ip), vehicle: Klucel (hydroxypropylcellulose) (HPC).
Setting [4] is: dose: 12.5 mg/kg/injection, schedule: Q01DX009 (ip), vehicle: saline.
[5] abbreviates: dose: 25.0 mg/kg/injection, schedule: Q01DX009 (ip), vehicle: saline.
The mark [6] stands for this setting: dose: 25.0 mg/kg/injection, schedule: Q01DX009 (ip), vehicle: Klucel (hydroxypropylcellulose) (HPC).
[7] abbreviates: dose: 400.0 mg/kg/injection, schedule: Q01DX009 (ip), vehicle: Klucel (hydroxypropylcellulose) (HPC).
Where [8] appears, read: dose: 12.5 mg/kg/injection, schedule: Q01DX009 (ip), vehicle: Klucel (hydroxypropylcellulose) (HPC).
[9] abbreviates: dose: 50.0 mg/kg/injection, schedule: Q01DX009 (ip), vehicle: saline with Tween-80.
Where [10] appears, read: dose: 100.0 mg/kg/injection, schedule: Q01DX009 (ip), vehicle: saline with Tween-80.
Setting [11] is: dose: 100.0 mg/kg/injection, schedule: Q01DX009 (ip), vehicle: saline.
[12] abbreviates: dose: 200.0 mg/kg/injection, schedule: Q01DX009 (ip), vehicle: saline.

With `COc1ccc2c(=O)c(C)c(-c3ccccc3)oc2c1CN(C)C`, the T/C reads like this: (dose: 0.19 mg/kg/injection, schedule: Q01DX009 (ip), vehicle: saline) 95 % of control; (dose: 0.39 mg/kg/injection, schedule: Q01DX009 (ip), vehicle: saline) 103 % of control; (dose: 0.78 mg/kg/injection, schedule: Q01DX009 (ip), vehicle: saline) 100 % of control; (dose: 1.56 mg/kg/injection, schedule: Q01DX009 (ip), vehicle: saline) 96 % of control.

On to `CC1=C2C(=O)c3ccccc3C2=C(C)S(=O)(=O)O1`, for which the T/C runs as follows: (dose: 50.0 mg/kg/injection, schedule: Q01DX009 (ip), vehicle: carboxymethylcellulose (CMC)) 99 % of control; (dose: 100.0 mg/kg/injection, schedule: Q01DX009 (ip), vehicle: carboxymethylcellulose (CMC)) 87 % of control.

For the compound `CCCCCCCCC(=O)N(C)OC`, the T/C (dose: 3.13 mg/kg/injection, schedule: Q04DX003 (ip), vehicle: saline) is 107 % of control; the T/C (dose: 6.25 mg/kg/injection, schedule: Q04DX003 (ip), vehicle: saline) was 121 % of control; the T/C (dose: 12.5 mg/kg/injection, schedule: Q04DX003 (ip), vehicle: saline) is 105 % of control.

In the case of `CC(=O)CC(C)=O.CC(=O)CC(C)=O.CC(=O)CC(C)=O.[Cr]`, the T/C runs as follows: under setting [1], 96 % of control; under setting [2], 97 % of control; under setting [3], 90 % of control.

Turning to `O=C1C(=O)c2cccc3cccc1c23`, the T/C under setting [4] was 88 % of control and the T/C under setting [5] was 94 % of control.

With `Clc1ccc(NC2=NCCCS2)c2ccccc12`, the T/C was 105 % of control under setting [6], 92 % of control under setting [1] and 95 % of control under setting [2].

For the compound `CN1C2CCC1CC(OC1c3ccccc3CCc3ccccc31)C2` (stereo not drawn), the T/C was 90 % of control (dose: 3.12 mg/kg/injection, schedule: Q01DX009 (ip), vehicle: saline); 97 % of control (dose: 6.25 mg/kg/injection, schedule: Q01DX009 (ip), vehicle: saline); 97 % of control under setting [4].

As to `CC1=CC(C)(C)Nc2ccc(CSc3ccccc3)cc21`, the T/C by setting is: (dose: 12.5 mg/kg/injection, schedule: Q01DX009 (ip), vehicle: saline + Tween-80 + alcohol) 112 % of control; (dose: 25.0 mg/kg/injection, schedule: Q01DX009 (ip), vehicle: saline + Tween-80 + alcohol) 117 % of control; (dose: 50.0 mg/kg/injection, schedule: Q01DX009 (ip), vehicle: saline + Tween-80 + alcohol) 111 % of control; (dose: 100.0 mg/kg/injection, schedule: Q01DX009 (ip), vehicle: saline + Tween-80 + alcohol) 96 % of control.

As for `CCCCCCCCCCCCNC(=O)Nc1ccc(CC)cc1`, the T/C by setting is: under setting [2], 92 % of control; under setting [3], 100 % of control; under setting [7], 100 % of control.

As for `CC(C)(C)NC/C(=C\c1ccccc1)C(=O)c1ccccc1`, the T/C by setting is: (dose: 6.25 mg/kg/injection, schedule: Q04DX003 (ip), vehicle: saline with Tween-80) 100 % of control; under setting [8], 96 % of control; (dose: 12.5 mg/kg/injection, schedule: Q04DX003 (ip), vehicle: saline with Tween-80) 98 % of control; under setting [6], 96 % of control; (dose: 25.0 mg/kg/injection, schedule: Q04DX003 (ip), vehicle: saline with Tween-80) 97 % of control and 102 % of control.

As to `CN(CC(=O)NC(Cc1ccccc1)C(=O)O)C(=O)OCc1ccccc1` (stereo not drawn) (Cbz-[Sar]-[ξF]-OH), the T/C is, setting by setting: under setting [9], 97 % of control; under setting [10], 96 % of control; (dose: 200.0 mg/kg/injection, schedule: Q01DX009 (ip), vehicle: saline with Tween-80) 103 % of control.

Regarding `Nc1cccs1`, the T/C is 108 % of control under setting [4]; 99 % of control under setting [5]; 94 % of control (dose: 50.0 mg/kg/injection, schedule: Q01DX009 (ip), vehicle: saline).

Consider `COc1cc2ccc(C(C)N)cc2cc1OC` (stereo not drawn), for which the T/C under setting [11] is 97 % of control and the T/C under setting [12] was 95 % of control.

Consider `Cc1cc(Cl)ccc1NC(=O)c1ccccc1Cl`, for which the T/C under setting [2] is 114 % of control, the T/C under setting [3] was 122 % of control and the T/C under setting [7] is 110 % of control.

Consider `OC1COCOC1` (tested in a mixture with another compound), for which the T/C runs as follows: under setting [11], 115 % of control; under setting [12], 106 % of control; (dose: 400.0 mg/kg/injection, schedule: Q01DX009 (ip), vehicle: saline) 106 % of control.

Consider `CC(C)(C)c1ccc(C(=O)C2CC2)cc1`, for which the T/C reads like this: (dose: 25.0 mg/kg/injection, schedule: Q01DX009 (ip), vehicle: saline with Tween-80) 94 % of control; under setting [9], 99 % of control; under setting [10], 95 % of control.

For `CC[C@](C)(O)C(=O)O[C@H]1C(=O)O[C@@H]2C[C@H]3C(C)=CC(=O)[C@@H](O)[C@]3(C)[C@H]3[C@@]4(O)OC[C@]32[C@@H]1[C@@H](C)[C@H]4O`, the T/C runs as follows: (dose: 0.13 mg/kg/injection, schedule: Q01DX009 (ip), vehicle: Klucel (hydroxypropylcellulose) (HPC)) 110 % of control; (dose: 0.13 mg/kg/injection, schedule: Q01DX009 (ip), vehicle: steriod suspending solution) 108 % of control; (dose: 0.25 mg/kg/injection, schedule: Q01DX009 (ip), vehicle: Klucel (hydroxypropylcellulose) (HPC)) 107 % of control; (dose: 0.25 mg/kg/injection, schedule: Q01DX009 (ip), vehicle: saline) 121 % of control; (dose: 0.25 mg/kg/injection, schedule: Q01DX009 (ip), vehicle: steriod suspending solution) 122 % of control; (dose: 0.5 mg/kg/injection, schedule: Q01DX009 (ip), vehicle: Klucel (hydroxypropylcellulose) (HPC)) 114 % of control. Also, the T/C by setting is: (dose: 0.5 mg/kg/injection, schedule: Q01DX009 (ip), vehicle: saline) 154 % of control; (dose: 1.0 mg/kg/injection, schedule: Q01DX009 (ip), vehicle: steriod suspending solution) 114 % of control; (dose: 125.0 micrograms/kg/injection, schedule: Q01DX009 (ip), vehicle: saline with Tween-80) 121 % of control; (dose: 250.0 micrograms/kg/injection, schedule: Q01DX009 (ip), vehicle: saline with Tween-80) 112 % of control; (dose: 500.0 micrograms/kg/injection, schedule: Q01DX009 (ip), vehicle: saline with Tween-80) 121 % of control.

For `Cc1ccc(S(=O)(=O)N/N=C/C(=O)O)cc1`, the T/C runs as follows: (dose: 0.78 mg/kg/injection, schedule: Q01DX009 (ip), vehicle: saline with Tween-80) 108 % of control; (dose: 1.56 mg/kg/injection, schedule: Q01DX009 (ip), vehicle: saline with Tween-80) 110 % of control; (dose: 3.12 mg/kg/injection, schedule: Q01DX009 (ip), vehicle: saline with Tween-80) 104 % of control; (dose: 6.25 mg/kg/injection, schedule: Q01DX009 (ip), vehicle: Klucel (hydroxypropylcellulose) (HPC)) 103 % of control and 111 % of control; (dose: 6.25 mg/kg/injection, schedule: Q01DX009 (ip), vehicle: saline with Tween-80) 104 % of control and 112 % of control; under setting [8], 121 % of control. For the same compound, the T/C (dose: 12.5 mg/kg/injection, schedule: Q01DX009 (ip), vehicle: saline with Tween-80) is 111 % of control; the T/C (dose: 15.0 mg/kg/injection, schedule: Q01DX009 (ip), vehicle: saline with Tween-80) was 112 % of control; the T/C (dose: 17.5 mg/kg/injection, schedule: Q01DX009 (ip), vehicle: Klucel (hydroxypropylcellulose) (HPC)) is 118 % of control; the T/C (dose: 23.0 mg/kg/injection, schedule: Q01DX009 (ip), vehicle: saline with Tween-80) was 103 % of control; the T/C (dose: 53.0 mg/kg/injection, schedule: Q01DX009 (ip), vehicle: saline with Tween-80) was 100 % of control; the T/C (dose: 70.0 mg/kg/injection, schedule: Q01DX009 (ip), vehicle: Klucel (hydroxypropylcellulose) (HPC)) is 151 % of control. Also, the T/C (dose: 70.0 mg/kg/injection, schedule: Q01DX009 (ip), vehicle: saline with Tween-80) is 115 % of control.
